The results in this text go back to patent publication US20150119422A1, “SIMETHICONE FORMULATION” (DISPHAR INTERNATIONAL B.V., priority 2011, published 2015).

The format of this data set is physicochemical. The following applies: pH range of 1 to 7. The procedure: Dissolution studies for determining release of the active ingredient at various pHs were carried out using a TDT-08 L dissolution apparatus from Electrolab®.
The above-mentioned tablets were studied for release profile, at 30 minutes, in solutions of varied pH such as 1.2, 4.5 and 6.8 respectively in aqueous solutions of 0.1 N HCl, acetate buffer and phosphate buffer.

Counter-ions that a name gives are not always drawn.

With `CN(C)C(=O)C(CCN1CCC(O)(c2ccc(Cl)cc2)CC1)(c1ccccc1)c1ccccc1` [loperamide hydrochloride], the “pH dependence of release / dissolution” value is given as “pH dependent dissolution characteristics”.
